# Results published in PubChem BioAssay (NCI).
#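 Where inhibition never reached the appropriate level, the endpoint shown equals the highest concentration tested. Otherwise, values were interpolated linearly from a five-concentration, 48-hour dose response in 96-well plates. TGI: total growth inhibition.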
# Tests used:
# Assay in all cases: NCI tumour cell line growth inhibition, 48 h
# 786-0 renal = system: 786-0 renal
# OVCAR-3 ovarian = system: OVCAR-3 ovarian
# SK-MEL-28 melanoma = system: SK-MEL-28 melanoma
# SK-MEL-5 melanoma = system: SK-MEL-5 melanoma
# LOX IMVI melanoma = system: LOX IMVI melanoma
# DU-145 prostate = system: DU-145 prostate
# IGROV1 ovarian = system: IGROV1 ovarian
# OVCAR-4 ovarian = system: OVCAR-4 ovarian
# PC-3 prostate = system: PC-3 prostate
# T-47D breast = system: T-47D breast
# OVCAR-5 ovarian = system: OVCAR-5 ovarian
# COLO 205 colon = system: COLO 205 colon
# HOP-62 NSCLC = system: HOP-62 NSCLC
# SNB-75 CNS = system: SNB-75 CNS
# RPMI-8226 leukemia = system: RPMI-8226 leukemia
# NCI/ADR-RES ovarian = system: NCI/ADR-RES ovarian
# MDA-N = system: MDA-N
# SF-539 CNS = system: SF-539 CNS
# NCI-H23 lung = system: NCI-H23 lung
Compound,TGI (786-0 renal),TGI (OVCAR-3 ovarian),TGI (SK-MEL-28 melanoma),TGI (SK-MEL-5 melanoma),TGI (LOX IMVI melanoma),TGI (DU-145 prostate),TGI (IGROV1 ovarian),TGI (OVCAR-4 ovarian),TGI (PC-3 prostate),TGI (T-47D breast),TGI (OVCAR-5 ovarian),TGI (COLO 205 colon),TGI (HOP-62 NSCLC),TGI (SNB-75 CNS),TGI (RPMI-8226 leukemia),TGI (NCI/ADR-RES ovarian),TGI (MDA-N),TGI (SF-539 CNS),TGI (NCI-H23 lung)
Cc1ccc(C)n1-n1c(Cc2ccc(Cl)cc2)n[nH]c1=O,> 100 µM,> 100 µM,> 100 µM,> 100 µM,> 100 µM,> 100 µM,> 100 µM,> 100 µM,> 100 µM,> 100 µM,> 100 µM,> 100 µM,> 100 µM,> 100 µM,> 100 µM,> 100 µM,> 100 µM,–,–
CCOC(=O)C1C(c2ccccc2)C2(C#N)C(=N)OC1(C)C2(C#N)C#N (stereo not given),26.4 µM,–,–,25.1 µM,29.4 µM,> 100 µM,37.8 µM,–,> 100 µM,> 100 µM,72.6 µM,31.5 µM,–,34.7 µM,42.6 µM,85.9 µM,27.9 µM,37.4 µM,37 µM
CCN(CC)CCOc1ccc(N2Cc3cc(OC)c(OC)cc3C2=O)cc1,> 100 µM,> 100 µM,> 100 µM,> 100 µM,> 100 µM,> 100 µM,> 100 µM,> 100 µM,> 100 µM,> 100 µM,> 100 µM,> 100 µM,> 100 µM,–,> 100 µM,> 100 µM,> 100 µM,> 100 µM,> 100 µM
CC1NC(=O)c2c(-c3ccccc3)nn(-c3ccccc3)c2NC1=O (stereo not given),> 100 µM,> 100 µM,> 100 µM,> 100 µM,> 100 µM,> 100 µM,> 100 µM,> 100 µM,> 100 µM,> 100 µM,> 100 µM,> 100 µM,> 100 µM,> 100 µM,> 100 µM,> 100 µM,> 100 µM,–,> 100 µM
CC(=O)OCc1cc(OC(C)=O)c2cc3c(OC(C)=O)cccc3c(OC(C)=O)c2c1,34.4 µM,33.6 µM,51.7 µM,23.7 µM,–,43.5 µM,40.3 µM,59.3 µM,38.6 µM,51.3 µM,46.4 µM,> 100 µM,39.6 µM,45.2 µM,44.6 µM,43.4 µM,40.9 µM,–,56.8 µM
CC1(C)CC(=O)c2c(nc3c(ccc4ccccc43)c2-c2ccc(NC(=O)CCCCCCCCC(=O)Nc3ccc(-c4c5c(nc6c4ccc4ccccc46)CC(C)(C)CC5=O)cc3)cc2)C1,> 100 µM,> 100 µM,> 100 µM,> 100 µM,> 100 µM,> 100 µM,> 100 µM,–,> 100 µM,> 100 µM,> 100 µM,> 100 µM,> 100 µM,> 100 µM,> 100 µM,> 100 µM,> 100 µM,> 100 µM,–
C/C(CC(O)(C(F)(F)Cl)C(F)(F)Cl)=N\Nc1ccccc1,> 100 µM,48.3 µM,> 100 µM,36.9 µM,> 100 µM,> 100 µM,> 100 µM,> 100 µM,78.9 µM,> 100 µM,> 100 µM,> 100 µM,–,78.9 µM,> 100 µM,> 100 µM,> 100 µM,> 100 µM,50 µM
CCCCCCCCOP(=O)(O)OP(=O)(O)OCC1OC(n2ccc(N)nc2=O)C(O)C1O (stereo not given),> 100 µM,> 100 µM,> 100 µM,> 100 µM,> 100 µM,–,> 100 µM,> 100 µM,> 100 µM,> 100 µM,> 100 µM,> 100 µM,> 100 µM,> 100 µM,> 100 µM,> 100 µM,> 100 µM,> 100 µM,> 100 µM
COc1ccc(-c2c(C(C)=O)c(C)n(C3OC(COC(C)=O)C(OC(C)=O)C(OC(C)=O)C3OC(C)=O)c(=S)c2C#N)cc1 (stereo not given),> 100 µM,> 100 µM,> 100 µM,> 100 µM,> 100 µM,> 100 µM,> 100 µM,> 100 µM,> 100 µM,> 100 µM,> 100 µM,> 100 µM,> 100 µM,> 100 µM,–,> 100 µM,> 100 µM,> 100 µM,> 100 µM
O=C1NC(=S)NC1C(Cc1ccccc1)c1ccco1 (stereo not given),> 100 µM,–,> 100 µM,> 100 µM,> 100 µM,> 100 µM,> 100 µM,> 100 µM,–,> 100 µM,> 100 µM,> 100 µM,–,> 100 µM,> 100 µM,> 100 µM,> 100 µM,> 100 µM,> 100 µM
CCOC(=O)C(=O)N=Nc1c(O)[nH]c2ccccc12,> 100 µM,–,> 100 µM,> 100 µM,> 100 µM,> 100 µM,> 100 µM,> 100 µM,> 100 µM,> 100 µM,> 100 µM,> 100 µM,> 100 µM,> 100 µM,> 100 µM,> 100 µM,> 100 µM,–,> 100 µM
CC(C)C1=CC23CCC4C(C)(C(=O)O)CCCC4(C)C2CC1C1C(=O)N(c2ccc(N4C(=O)C5C6CC7C8(C)CCCC(C)(C(=O)O)C8CCC7(C=C6C(C)C)C5C4=O)cc2)C(=O)C13 (stereo not given),> 100 µM,18.6 µM,16.7 µM,19.2 µM,–,16.6 µM,–,25.1 µM,14.1 µM,26.8 µM,22 µM,10.8 µM,19.3 µM,–,80.3 µM,–,16.1 µM,22.4 µM,11.9 µM
CC[C@H](C)[C@H](NC(=O)[C@H](Cc1ccc(O)cc1)NCC(F)(F)F)C(=O)OC(C)(C)C,16.1 µM,–,19.1 µM,15.3 µM,17.5 µM,–,16.4 µM,13.3 µM,14.1 µM,18.3 µM,18 µM,18.4 µM,20.5 µM,17.5 µM,23.5 µM,50 µM,17.7 µM,21 µM,20.5 µM
O=c1[nH]ncc2[nH]c(-c3ccccc3)cc12,> 100 µM,> 100 µM,–,60.5 µM,> 100 µM,> 100 µM,> 100 µM,> 100 µM,95.1 µM,> 100 µM,> 100 µM,> 100 µM,> 100 µM,77 µM,> 100 µM,69 µM,> 100 µM,–,> 100 µM
CC(=O)OCC(OC(C)=O)C(OC(C)=O)C(/C=N\Nc1nc2ccccc2c(=O)[nH]1)OC(C)=O (stereo not given),> 100 µM,> 100 µM,> 100 µM,> 100 µM,> 100 µM,> 100 µM,> 100 µM,–,> 100 µM,> 100 µM,> 100 µM,> 100 µM,> 100 µM,> 100 µM,> 100 µM,> 100 µM,> 100 µM,> 100 µM,> 100 µM
C=CC(C)(C)c1c(OC)oc2ccc(OC)c(C)c2c1=O,> 100 µM,> 100 µM,> 100 µM,> 100 µM,> 100 µM,> 100 µM,> 100 µM,–,> 100 µM,> 100 µM,> 100 µM,> 100 µM,> 100 µM,> 100 µM,> 100 µM,> 100 µM,> 100 µM,> 100 µM,> 100 µM
CC(=O)c1cc2sc3ccccc3c2[nH]1,> 100 µM,> 100 µM,> 100 µM,> 100 µM,–,> 100 µM,–,> 100 µM,> 100 µM,> 100 µM,> 100 µM,> 100 µM,> 100 µM,–,> 100 µM,> 100 µM,> 100 µM,> 100 µM,> 100 µM
Cc1ccc(NC(=O)C23CC4CC(CC(C4)C2)C3)c(C(=O)NNC(=O)c2ccc(Cl)cc2)c1,59 µM,66.9 µM,–,42.6 µM,35.3 µM,> 100 µM,18.2 µM,65.8 µM,69.5 µM,> 100 µM,61.3 µM,> 100 µM,49.6 µM,–,41.5 µM,61.1 µM,52.1 µM,49.5 µM,38.8 µM
Cn1c(=O)oc2cc(C(=O)CN3CCN(Cc4ccc5c(c4)OCO5)CC3)c(Cl)cc21,> 100 µM,–,–,> 100 µM,> 100 µM,> 100 µM,> 100 µM,–,> 100 µM,> 100 µM,> 100 µM,> 100 µM,> 100 µM,> 100 µM,> 100 µM,> 100 µM,> 100 µM,> 100 µM,> 100 µM
Cc1ccc(C2=NN=C3C(c4ccccc4)=Nc4ccccc4N3C2)cc1,> 50.7 µM,10.4 µM,> 100 µM,32.8 µM,> 100 µM,32.3 µM,> 100 µM,21.8 µM,> 100 µM,> 100 µM,99.6 µM,> 100 µM,> 63.8 µM,–,> 73 µM,> 100 µM,> 100 µM,> 100 µM,> 100 µM
N=C(N)SCCSC(=N)N,> 100 µM,> 100 µM,> 100 µM,> 100 µM,> 100 µM,> 100 µM,> 100 µM,> 100 µM,> 100 µM,> 100 µM,> 100 µM,> 100 µM,> 100 µM,> 100 µM,> 100 µM,> 100 µM,> 100 µM,–,> 100 µM
O=C(O)[C@@]1(Cc2ccc(O)cc2)C[C@@H]2Cc3ccccc3N2N1,> 100 µM,> 100 µM,> 100 µM,> 100 µM,> 100 µM,> 100 µM,> 100 µM,> 100 µM,> 100 µM,> 100 µM,> 100 µM,> 100 µM,> 100 µM,–,> 100 µM,> 100 µM,> 100 µM,> 100 µM,> 100 µM
Cc1cc(N(C)C)ccc1N=Nc1ccc2ncccc2c1,> 100 µM,–,–,98.1 µM,–,> 100 µM,> 100 µM,–,> 100 µM,> 100 µM,> 100 µM,> 100 µM,–,> 100 µM,> 100 µM,> 100 µM,> 100 µM,> 100 µM,> 100 µM
CNC(=O)Nn1c(SC)nc2ccccc21,> 100 µM,–,> 100 µM,> 100 µM,> 100 µM,> 100 µM,> 100 µM,> 100 µM,> 100 µM,> 100 µM,> 100 µM,> 100 µM,> 100 µM,–,> 100 µM,> 100 µM,> 100 µM,–,> 100 µM
COc1cc(/C=C2\N=C(c3ccccc3)N(c3ccc4c(c3)Sc3cc(N5C(=O)/C(=C/c6cc(OC)c(OC)c(OC)c6)N=C5c5ccccc5)ccc3N4)C2=O)cc(OC)c1OC,40.9 µM,40.7 µM,> 100 µM,30.1 µM,52 µM,> 100 µM,32 µM,36.9 µM,38.3 µM,70.2 µM,39.6 µM,47.4 µM,60.2 µM,52.5 µM,88.9 µM,> 100 µM,37.9 µM,–,40.3 µM
COc1cc(C2SC(N)=Nc3c2c(C)nn3C(=O)Cc2ccccc2)cc(OC)c1OC (stereo not given),> 100 µM,–,> 100 µM,> 100 µM,> 100 µM,> 100 µM,> 100 µM,–,> 100 µM,> 100 µM,–,> 100 µM,> 100 µM,> 100 µM,> 100 µM,–,> 100 µM,> 100 µM,> 100 µM
